According to patent publication US20240060131A1, “METHOD FOR IDENTIFYING AND/OR REGULATING SENESCENCE” (INSTITUTE OF ZOOLOGY, CHINESE ACADEMY OF SCIENCES, priority 2020, published 2024):
“Also recorded” adds a separate entry of the source.

How the values were obtained:
Assay type in all cases: cell-based, human
[1] = test system: HERVK-LTR5HS; experiment: ChIP-qPCR of 5 mC occupation in HERVK-LTR5HS in treated hMPCs; conditions: hMPCs of early passage; vs cells not treated
Method: (§1) For 5-azacytidine (5-AZA) treatment, hMPCs were seeded (generation 0 (P0) after treatment), and treated by […] 5-AZA for 4 days, followed by passage and culture in fresh medium. At P2 after treatment (6 days after 5-AZA treatment), cells was used for Ki67 immunofluorescence, SA-O-gal staining and RNA/DNA extraction.
Cells were fixed in 1% formaldehyde dissolved in PBS at room temperature for 10 min, and then, quenched by 125 mM glycine. Cells were lysed on ice for 10 min, and subjected to ultrasonic treatment with Covaris S220. Collected supernatant was incubated with Dynabeads Protein A (Life Technologies, 10001D) pre-mixed with 2.3 μg specified antibody at 4° C. overnight. After washing, samples were digested by Protease K (New England Biolabs), eluted and cross-link-reversed on thermal mixer at 68° C. for 2 h. DNA was extracted with phenol-chloroform-isoamylol, and eluted DNA was analyzed by qPCR.
5-AZA (a DNA methyltransferase inhibitor (DNMTi)) was used to treat hMPCs of early passage. ChIP-qPCR and RT-qPCR analyses were performed on treated cells, cells not treated by 5-AZA were used as control.

[2] = test system: HERVK; experiment: RT-qPCR and Western blot of HERVK and senescence markers in hMPCs after HERVK activation or 5-AZA treatment; conditions: RT-qPCR
Method: (§2) Cells were lysed in 1×SDS buffer (100 mM Tris-HCl, pH 6.8, 10% glycerol, 2% SDS and 2%2-mercaptoethanol), boiled for 10 min at 105° C. Protein concentration was measured by BCA kit. Cell lysate was subjected to SDS-PAGE electrophoresis, then transferred to PVDF membrane (Millipore). The membrane was incubated with primary antibody, incubated with secondary antibody conjugated to HRP after washing, then blotted with substrate, the substrate was the mixture of 1000 μL substrate A and 3 μL substrate B (substrate A: 0.2 mM cumaric acid, 1.25 mM luminal, 0.1 M Tris-HCl, pH 8.5; substrate B: 3% H2O2) or Super Signal West Femto Maximum Sensitivity Substrate (Thermo Fisher Scientific). Images were taken by Image Lab software. Quantification was conducted by ImageJ.
(§3) In accordance with the manufacturer's instructions, total RNA of cell was extracted by TRIzol (Thermo Fisher Scientific); reverse transcribed into cDNA with GoScript reverse transcription system (Promega) for RT-qPCR; RT-qPCR was conducted with THUNDERBIRD qPCR Mix (TOYOBO) and CFX384 real-time system (Bio-Rad Laboratories, Inc.).
To activate endogenous HERVK, non-targeted control or lentivirus construct with HERVK LTR targeted sgRNA was cloned to lenti-SAM v2 (addgene #75112) through ESP3I site, and co-transfected with lenti-MPH v2 (addgene #89308). […]
HERVK-activated cell was analyzed by RT-qPCR and Western blot. […]

[3] = test system: hMPCs; experiment: Analysis of classical aging characteristics (SA-β-gal, Ki67, clonal expansion) in hMPCs; conditions: hMPCs after HERVK activation or 5-AZA treatment
Method: Cells seeded on coverslip (Thermo Fisher Scientific) were washed by PBS, fixed in 4% paraformaldehyde (PFA), permeabilized in 0.4% Triton X-100, blocked by 10% donkey serum. The coverslip was incubated with primary antibody at 4° C. in blocking buffer, then incubated with secondary antibody at room temperature for 1 h. Nucleus was labelled by Hoechst 33342 (Invitrogen).
as §1
For lentivirus transduction, hMPCs were seeded (P0 after treatment) and incubated with lentivirus in the presence of polybrene (Sigma-Aldrich) for 24 h. After two passages, treated cells were used for Ki67 immunofluorescence, SA-β-gal staining and RNA/DNA extraction.
5 thousand cells were seeded in one well of 6-well plate (Corning) cover with gelatin (Sigma), and cultured for about 10 days. Cells were fixed by 4% PFA, stained by 10% crystal violet for 30 min. Relative cell integral density was calculated by ImageJ software.
Cells were fixed by a buffer containing 2% (w/v) formaldehyde and 0.2% (w/v) glutaraldehyde for 5 min, and treated by staining buffer containing 1 mg/mL X-gal at 37° C. overnight.
In particular, relative percentage of cells positive for senescence associated β-galactosidase (SA-β-gal) was increased, the number of Ki67 positive cells was decreased and the clonal expansion ability was reduced (as shown by FIGS. 12C-12E).

[4] = test system: cGAS-STING pathway; experiment: cGAS-STING innate immune pathway and SASP in hMPCs (Western blot, RT-qPCR); conditions: hMPCs with activated endogenous HERVK
Method: as §2, §3
To further study the activation of cGAS-STING DNA sensing pathway, the following key characteristics in different senescent hMPCs (including RS, HGPS and WS) and fibroblasts were detected: […] TANK binding kinase 1 (TBK1) and IFN regulating factor 3 (IRF3) as well as proinflammatory cytokines (e.g., IL1B andIL6), these factors were regarded as SASP factors.

For `Nc1ncn([C@@H]2O[C@H](CO)[C@@H](O)[C@H]2O)c(=O)n1` [5-AZA, 5-azacytidine], the “5 mC occupation in HERVK-LTR5HS” value [1] was “reduce; also recorded: decrease”, the “senescence marker p16INK4a level” value [2] was “increased” and the “HERVK RNA level” value ([2]; vs untreated or non-targeting sgRNA control) was “increase”. The SA-β-gal positive cells [3] was “increased”, the “cell senescence (overall)” value [3] was “caused premature senescence; also recorded: induces senescence” and the clonal expansion ability [3] was “reduced”. The “number of Ki67 positive cells” value [3] was “decreased”, the “expression of SASP cytokine” value [4] was “up-regulated” and the “level of phosphorylated IRF3” value [4] was “increased”. The “level of phosphorylated RelA” value [4] was “increased” and the “level of phosphorylated TBK1” value [4] was “increased”.
